In patent US10092568B2, “CBP/Catenin antagonists for enhancing asymmetric division of somatic stem cells” (University of Southern California, priority 2010, dated 2018):
“Also recorded” adds a separate entry of the source.

Experiments:
[1] = tested on: rat type II lung epithelial cells; experiment: TGF-β1-induced EMT genes in lung epithelial cells; assay type: cell-based
Source text: Fibrosis. Idiopathic pulmonary fibrosis (IPF)/usual interstitial pneumonia (UIP), the most common of the idiopathic interstitial pneumonias, is a devastating, progressive disorder characterized by excessive fibroblast proliferation and extracellular matrix remodeling leading to lung destruction. There is currently no effective therapy for this uniformly fatal disease. An emerging paradigm proposes a central role for alveolar epithelial cell injury and dysregulated repair in the pathogenesis of IPF. Injury to the epithelium is thought to initiate a cascade of fibroblast activation and matrix deposition, which in predisposed hosts fails to resolve as it would in the course of normal wound repair. Epithelial cells undergo excessive apoptosis, whereas fibroblasts are less amenable to apoptosis and manifest increased survival. The well-characterized model of bleomycin-induced lung injury has been extensively used to investigate potential pathways involved in the pathogenesis of pulmonary fibrosis and to explore therapeutic approaches.

[2] = tested on: human anagen hair follicles; settings: cited from earlier work
Min mouse = Min mouse polyp model; assay type: in vivo
Source text: Cancer. The importance of Wnt signaling in colorectal cancer is undisputed. Applicant's investigation on the therapeutic utility of ICG-001 therefore quite naturally began with colon cancer.

mice = experiment: Topical treatment of mothers throughout pregnancy, offspring development; assay type: in vivo, mouse; settings: mothers treated topically, 0.5M, conception to birth
Source text: Acute Promyelocytic Leukemia (APL) is unique among myeloid leukemias due to its sensitivity to all-trans retinoic acid (ATRA), a derivative of vitamin A. Treatment with ATRA dissociates the NCOR-HDACL complex from RAR and allows DNA transcription and differentiation of the immature leukemic promyelocytes into mature granulocytes by targeting the oncogenic transcription factor and its aberrant action. […] A large number of scientific studies have also investigated a possible role for vitamin D in cancer prevention, including colon, prostate, breast, pancreatic and skin cancer. […] However, there are also reports of synergistic effects on the activation of gene expression by ATRA and Wnt for example (47). […] This is the same region of these coactivator proteins (i.e., CBP and p300) that partners with catenin (both beta and gamma) and the CBP/catenin antagonists (e.g., ICG-001) also bind to this region. These nuclear receptor ligands have many of the same differentiating effects on stem cell populations that applicant has observed with specific CBP/catenin antagonists. Although, both Vitamin A and D are required during development and have many beneficial health effects in adulthood, both are teratogenic at high levels. […]

[3] = tested on: Adenosine Receptor A2B (ADORA2B); experiment: Gene expression array of cells in culture; assay type: cell-based; settings: colonic epithelium, 10 uM
MDA-MB-231 cells = experiment: Stem cell markers in triple negative breast cancer cell line; assay type: cell-based
Source text: This phenotype CD44^hi, CD24^lo has been associated with a subpopulation of cells that behave like a breast cancer stem/tumor initiating cell population (51). […] Beyond reduction of survivin message level, there is a gene expression profile consistent with the occurrence of a mesenchymal to epithelial (MET) transition (i.e., decreased expression of twist, vimentin and S100A4 and an increase in E-cadherin expression). Recently, there have been a number of papers, which have correlated epithelial to mesenchymal transition (EMT) with a CSC phenotype (52). EMT is a normal physiologic process that is important in development and in adults, for example in wound healing, but pathophysiologically is associated with tumor metastasis and organ fibrosis (see later discussion on fibrosis). Specific CBP/catenin antagonists can reverse this aberrant EMT in vivo (EMT also plays a critical role in the skin in hair loss etc. J Dermatol Sci. 2011 Jan; 61(1):7-13. Epub 2010 Dec. 5; epithelial-mesenchymal transition (EMT) plays important roles not only in the morphogenesis but also in wound repair, tissue fibrosis and cancer progression. Recently, regulatory mechanism of this process has been elaborately elucidated. EMT can be a new therapeutic target for treating skin ulcer, fibrosing alopecia, and malignant cutaneous cancers, including squamous cell carcinoma and melanoma).

[4] = tested on: NOD/SCIDIL2R gamma−/− mice; experiment: Leukemia mouse model, hair growth and wound healing; assay type: in vivo; settings: 50 mg/kg/d with VDL versus VDL only
Method: NOD/SCIDIL2R gamma−/− mice were shaved and sublethally irradiated prior intravenous injection of 50,000 cells per animal. Leukemic animals were treated with a combination of intraperitoneally administered vincristine/dexamethasone/L-Aspariginase (VDL) and ICG-001 (50 mg/kg/d), which was delivered via subcutaneous osmotic pumps to ensure stable plasma levels, with VDL only as a control for 20 days. The animals were checked periodically for survival, hair growth, and wound healing.

[5] = molecular target: CBP/beta-catenin interaction (Homo sapiens, UniProt Q92793); experiment: Disruption of the CBP/beta-catenin interaction; assay type: biochemical
Chain of CBP/beta-catenin interaction (Q92793 whole entry, the tested form may be a part): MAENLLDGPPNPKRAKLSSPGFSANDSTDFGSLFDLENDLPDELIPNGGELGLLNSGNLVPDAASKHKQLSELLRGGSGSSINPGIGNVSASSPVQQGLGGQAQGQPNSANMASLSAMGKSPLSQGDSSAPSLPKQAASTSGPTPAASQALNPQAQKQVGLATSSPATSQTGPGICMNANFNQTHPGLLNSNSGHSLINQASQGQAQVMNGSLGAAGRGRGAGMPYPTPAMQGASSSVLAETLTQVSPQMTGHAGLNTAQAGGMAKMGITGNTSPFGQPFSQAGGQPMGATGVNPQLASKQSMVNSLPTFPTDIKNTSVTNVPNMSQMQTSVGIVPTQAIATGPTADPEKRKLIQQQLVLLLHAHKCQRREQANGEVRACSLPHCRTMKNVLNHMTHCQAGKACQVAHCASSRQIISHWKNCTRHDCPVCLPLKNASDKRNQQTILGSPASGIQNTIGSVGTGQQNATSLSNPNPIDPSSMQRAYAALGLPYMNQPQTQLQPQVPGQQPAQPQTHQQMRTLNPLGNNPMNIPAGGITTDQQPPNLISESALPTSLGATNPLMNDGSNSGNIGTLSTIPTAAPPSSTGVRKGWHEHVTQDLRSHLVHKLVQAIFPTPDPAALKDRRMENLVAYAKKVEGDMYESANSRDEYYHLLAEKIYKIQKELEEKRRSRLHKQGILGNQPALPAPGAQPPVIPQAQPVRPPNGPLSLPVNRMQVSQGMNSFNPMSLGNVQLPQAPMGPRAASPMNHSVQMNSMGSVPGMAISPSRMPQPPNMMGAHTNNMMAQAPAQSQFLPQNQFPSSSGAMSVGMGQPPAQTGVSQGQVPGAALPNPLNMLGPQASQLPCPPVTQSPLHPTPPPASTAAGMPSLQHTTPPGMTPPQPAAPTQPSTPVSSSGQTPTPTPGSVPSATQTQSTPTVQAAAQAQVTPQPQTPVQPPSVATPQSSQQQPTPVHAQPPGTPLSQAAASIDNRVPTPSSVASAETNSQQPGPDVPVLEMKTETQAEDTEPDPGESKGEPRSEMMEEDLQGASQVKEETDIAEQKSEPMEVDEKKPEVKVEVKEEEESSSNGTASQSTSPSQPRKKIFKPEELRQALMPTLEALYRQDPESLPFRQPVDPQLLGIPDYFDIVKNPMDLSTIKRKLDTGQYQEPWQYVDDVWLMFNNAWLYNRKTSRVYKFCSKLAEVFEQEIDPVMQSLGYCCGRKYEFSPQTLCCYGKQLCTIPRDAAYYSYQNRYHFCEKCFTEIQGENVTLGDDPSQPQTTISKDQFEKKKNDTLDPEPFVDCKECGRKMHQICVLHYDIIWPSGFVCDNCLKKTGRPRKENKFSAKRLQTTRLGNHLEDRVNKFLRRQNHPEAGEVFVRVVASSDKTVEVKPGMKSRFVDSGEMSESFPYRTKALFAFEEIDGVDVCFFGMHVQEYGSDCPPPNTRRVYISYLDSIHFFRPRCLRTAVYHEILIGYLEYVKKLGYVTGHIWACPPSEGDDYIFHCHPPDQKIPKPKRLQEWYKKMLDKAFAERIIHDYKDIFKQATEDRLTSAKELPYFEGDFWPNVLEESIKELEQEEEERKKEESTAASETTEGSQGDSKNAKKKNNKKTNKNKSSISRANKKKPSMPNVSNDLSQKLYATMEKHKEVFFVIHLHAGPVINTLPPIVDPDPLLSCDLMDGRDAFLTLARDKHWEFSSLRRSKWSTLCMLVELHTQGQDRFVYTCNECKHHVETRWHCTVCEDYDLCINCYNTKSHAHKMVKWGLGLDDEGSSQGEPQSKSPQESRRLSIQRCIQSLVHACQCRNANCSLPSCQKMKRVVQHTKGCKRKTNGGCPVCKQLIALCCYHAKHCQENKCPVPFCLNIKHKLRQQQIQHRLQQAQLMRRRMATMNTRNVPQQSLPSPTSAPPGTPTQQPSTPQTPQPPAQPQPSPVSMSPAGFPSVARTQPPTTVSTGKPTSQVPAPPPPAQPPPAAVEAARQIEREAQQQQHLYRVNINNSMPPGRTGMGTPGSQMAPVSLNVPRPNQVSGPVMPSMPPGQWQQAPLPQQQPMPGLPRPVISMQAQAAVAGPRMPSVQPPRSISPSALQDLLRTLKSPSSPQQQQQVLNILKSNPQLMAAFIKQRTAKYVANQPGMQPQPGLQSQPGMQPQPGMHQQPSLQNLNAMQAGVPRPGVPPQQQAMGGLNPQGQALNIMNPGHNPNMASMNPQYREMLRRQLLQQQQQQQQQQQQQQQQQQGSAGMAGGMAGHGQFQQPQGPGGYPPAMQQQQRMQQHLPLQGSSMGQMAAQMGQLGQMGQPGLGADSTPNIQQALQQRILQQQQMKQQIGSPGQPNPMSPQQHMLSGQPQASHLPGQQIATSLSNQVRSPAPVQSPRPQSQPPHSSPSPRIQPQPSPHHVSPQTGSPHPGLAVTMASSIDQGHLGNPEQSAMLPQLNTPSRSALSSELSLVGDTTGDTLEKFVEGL
Source text: Applicant next mapped the binding domains between CBP and beta-catenin, as well as between p300 and beta-catenin. The C-terminal trans-activating region of beta-catenin (647-781) interacted with the same 1-111 amino acids of both CBP and p300 (23). However, only the interaction between CBP and beta-catenin was disrupted by ICG-001, and not the p300/beta-catenin interaction.

fertility of offspring (mice): could breed a second generation
weight and size of offspring at 6 weeks of age (mice): normal weight and size
interaction between CBP and beta-catenin [5]: disrupted
Compound: O=C1[C@H](Cc2ccc(O)cc2)N2C(=O)CCN(C(=O)NCc3ccccc3)[C@H]2CN1Cc1cccc2ccccc12 [ICG-001]
TGF-β1-induced up-regulation of α-SMA and type I collagen [1]: prevents
hair fiber elongation ([2]; dose-dependent): significantly reduced
survivin expression ([2]; microdissected hair follicle): decreased
polyps (Min mouse): reducing polyps
increase of expression of adenosine receptors (ADORA2B) [3]: ~10 ×
ALDH activity (MDA-MB-231 cells): dramatically decreases
side population (SP) (MDA-MB-231 cells): dramatically decreases
recruitment of p300 to the CD24 promoter (MDA-MB-231 cells; ChIP): increased recruitment
CD44 expression (MDA-MB-231 cells; MDA-MB-231): decreasing
expression of cell surface CD24 (MDA-MB-231 cells; MDA-MB-231, 24h): significantly increased
healing of wounds from pump insertion [4]: had substantial improved; also recorded: heal quicker
hair growth of shaved area ([4]; within two weeks): had regrown their hair; also recorded: substantial hair growth
